According to patent publication EP1310258A1, “Enantiomers of steroids for the enhancement of memory and cognitive function” (Baulieu, Etienne-Emile, priority 2001, dated 2003):
Structures can show the parent of a compound that is named as a salt.

What was measured:
steroid sulfatase [1] = target: T1, steroid sulfatase (Rattus norvegicus, UniProt P15589); experiment: In vitro metabolism: steroid sulfatase activity by rat liver microsomes; type: in vitro ADME; design: 200 µg microsomal proteins prepared from rat brain or liver; from tissue; host or cells: rat liver microsomes; details: 37°C, 1 hour; for formation of DHEA (metabolism by sulfatase) / formation of PREG (metabolism by sulfatase): 8 µg steroid with 200 µg rat liver microsomal proteins
T1 sequence (P15589 20-577): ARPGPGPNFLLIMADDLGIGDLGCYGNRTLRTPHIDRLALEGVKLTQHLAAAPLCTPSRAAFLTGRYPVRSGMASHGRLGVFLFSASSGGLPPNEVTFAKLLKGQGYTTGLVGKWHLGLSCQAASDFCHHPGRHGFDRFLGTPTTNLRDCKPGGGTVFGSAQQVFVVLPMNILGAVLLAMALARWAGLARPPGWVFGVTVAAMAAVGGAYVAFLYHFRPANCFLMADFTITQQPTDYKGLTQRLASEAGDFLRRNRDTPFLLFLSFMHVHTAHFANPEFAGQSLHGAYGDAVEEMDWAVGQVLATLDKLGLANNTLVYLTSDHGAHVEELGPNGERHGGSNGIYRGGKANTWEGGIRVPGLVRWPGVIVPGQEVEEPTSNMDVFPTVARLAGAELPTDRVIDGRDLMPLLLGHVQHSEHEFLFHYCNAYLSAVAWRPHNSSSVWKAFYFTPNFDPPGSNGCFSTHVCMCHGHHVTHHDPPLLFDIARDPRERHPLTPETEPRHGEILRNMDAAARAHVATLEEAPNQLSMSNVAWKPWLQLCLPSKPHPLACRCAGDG
Description: (§1) The metabolism of PREGS and ent-PREGS was examined after incubation of 8 µg of each steroid with 200 µg microsomal proteins prepared from rat brain or liver, at 37°C for lhour, and the unconjugated PREG was quantified in the brain by gas-chromatography-mass spectrometry (Liere et al., 2000, J. Chromatogr. B Biomed. Sci. Appl. 2000,739:301-12)
as §1, with “DHEAS” for “PREGS”, “ent-DHEAS” for “ent-PREGS”, “1hour,” for “lhour,”, “DHEA” for “PREG”

steroid sulfatase [2] = target: T1, steroid sulfatase; experiment: In vitro metabolism: steroid sulfatase activity by rat brain microsomes; type: in vitro ADME; design: 200 µg microsomal proteins prepared from rat brain or liver; from tissue; host or cells: rat liver microsomes; details: 8 µg steroid with 200 µg rat brain microsomal proteins, 37°C, 1 hour
Description: as §1
as §1, with “DHEAS” for “PREGS”, “ent-DHEAS” for “ent-PREGS”, “1hour,” for “lhour,”, “DHEA” for “PREG”

Swiss mice = experiment: Two-trial memory task (spatial recognition) in a Y-maze after ICV administration, mice; type: in vivo; details: ICV immediately after acquisition, 6-h intertrial interval, Newman-Keuls (PREGS P<0.05; ent-PREGS P<0.01)
Description: (§2) Male Sprague-Dawley rats and Swiss mice (Janvier, Le Genest St-Isle, France) 2 months of age and weighing 250-300g for rats and 30-32g for mice at the time of surgery were used. They were grouped-housed in a temperature (22°C ± 1°C) and humidity (50% ± 5%) controlled room. They were maintained on a 12-h light/12-h dark (08.00-20.00) schedule and had access to food and water ad libitum.
(§3) Rats were anaesthesized with a mixture of 5% ketamine (Imalgène 1000, Merial, France) and 0.1% acepromazine (Vetranquil 1%,) in saline, administered i.p. at 1.5 ml/kg. Mice were anesthetized with a mixture of 0.5% ketamine and 0.1% xylazine, under the volume of 15 ml/kg.
(§4) Animals were mounted in a stereotaxic and implanted with unilateral stainless steel cannula guides (23-gauge, 7 mm long) above the lateral ventricle, according to the coordinates from the atlas of rats and mice. Cannulas were secured to the skull with stainless steel screws and dental cement.
Animals were used for experiments after a 7-day postrecovery period. Each animal was handled daily for 3 days before the experiments and on the day before each experiment, cannula function was confirmed by gravity flow of isotonic saline. […]
(§5) The test consisted of two trials, separated by a 6-h intertrial interval. […] The time spent in each arm of the maze was recorded manually every minute. […]

Male Sprague-Dawley rats = experiment: Two-trial memory task (spatial recognition) in a Y-maze after ICV administration, rats; type: in vivo; details: ICV immediately after acquisition, 6-h intertrial interval, Newman-Keuls P<0.05
Description: as §2, §3, §4
Animals were used for experiments after a 7-day postrecovery period. Each animal was handled daily for 3 days before the experiments and on the day before each experiment, cannula function was confirmed by gravity flow of isotonic saline.
PREGS was obtained from Steraloïds (Newport, RI, Etats-Unis); the steroid enantiomers ent-SPREG et ent-SDHEA were synthesized as previously described (Nilsson et al., 1998, op. cit.). All compounds were dissolved in […] (vehicle)
PREGS was administered iCV at doses of 0 (vehicle), 0.05, 0.25, 0.5, 2.5, 5.0 and 12.5 nmol in rats and of 0 (vehicle), 0.05, 0.25, 0.5, 2.5, 5.0 and 12.5 nmol mice
ent-PREGS was injected ICV at doses of 0 (vehicle), 0.025, 0.05, 0.25, 0.5 nmol in rats and 0 (vehicle), 0.025, 0.05, 0.25, 0.5 and 2.5 nmol in mice.
ent-SDHEA was administered iCV at doses of 0; 0,25; 0,25 nmol in rats.
Drug and control-vehicle solutions were injected unilaterally through the cannula guide. […]
as §5

steroid sulfatase [3] = target: T1, steroid sulfatase; experiment: In vivo metabolism in rat brain: steroid sulfatase activity (GC-MS of unconjugated PREG); details: 5 min after ICV administration of 1µg
Description: The metabolism of PREGS and ent-PREGS was investigated 5 min after ICV administration of 1µg of each compound in rat and the unconjugated PREG was quantified in the brain by gas-chromatography-mass spectrometry (Liere et al., 2000, J. Chromatogr. B Biomed Sci. Appl. 2000,739:301-12).

NMDA receptor [4] = experiment: Coadministration of steroids with the NMDA receptor antagonist AP5, Y-maze recognition performance, mice; type: in vivo; details: for memory performances when coadministered with AP5 compared to the group treated with the steroid alone: AP5 2 nmol ICV together with PREGS 5.0 nmol or ent-PREGS 5.0 nmol (so in the source); for recognition performances of steroid alone compared with vehicle-controls: ICV effective doses alone (PREGS 5.0 nmol, ent-PREGS 5.0 nmol as printed), P < 0.05
Description: (§6) The two-trial memory task based on spontaneous exploration of novelty was adapted from the ones described by Dellu et al. (1992, Brain Res., 588, 132-9) in rats and by Ladurelle et al. (2000, Brain Res., 858, 371-9) in mice.
(§7) Experiments were performed in a gray polyvinychloride Y-maze. The size of each arm was 40 cm long, 15 cm wide and 35 cm high for rats, and 30 cm long, 10 cm wide and 17 cm high for mice. The floor of the maze was covered with odor-saturated sawdust which was mixed after each trial. The maze was placed in a sound-attenuated room under dim illumination. Numerous visual cues were placed on the walls of the testing room and kept constant during the entire behavioral testing..
(§8) The test consisted of two trials, separated by a 6-h intertrial interval. During the first trial (acquisition phase), one arm of the Y-maze (subsequently called novel arm) was closed with a guillotine door, thus allowing the animal to explore only the other two arms, during 5 min and 3 min for rats and mice, respectively. During the second trial (retention phase), the animals had access to the three arms for 5 min. The time spent in each arm of the maze was recorded manually every minute. Recognition was assumed to have occurred when the animal spent more time in the novel arm compared with the familiar ones. The total number of arm visits provided a measure of general motor activity.
(§9) A between-subjects design was used where each observation was made for a separate animal. Data were reported as the amount of time spent in the novel arm relative to the total duration of visits in the three arms (novel/total x 100) during the first 3 min.
(§10) They were expressed as mean ± SEM and analyzed by using one-way ANOVA followed by Newmann-Keuls posthoc test. Significance was defined as P<0.05 or P<0.01.
(§11) The effects of the ICV injection of AP5, at ICV doses of 2 and 10 nmol in mice and rats, respectively, was studied on the memory-enhancing effects of PREGS (0.5 nmol in rats and 5.0 nmol in mice) and ent-PREGS (0.05 nmol in rats and 5.0 nmol in mice).

NMDA receptor [5] = experiment: Coadministration of steroids with the NMDA receptor antagonist AP5, Y-maze recognition performance, rats; type: in vivo; details: for memory performances when coadministered with AP5 compared to the group treated with the steroid alone: AP5 10 nmol ICV together with PREGS 0.5 nmol or ent-PREGS 0.05 nmol; for recognition performances of steroid alone compared with vehicle-controls: ICV effective doses alone (PREGS 0.5 nmol, ent-PREGS 0.05 nmol), P < 0.05
Description: as §6, §7, §8, §9, §10, §11

[6] = rat liver versus brain microsomes, 8 µg steroid, 200 µg protein

Structure (SMILES)	formation of DHEA (metabolism by sulfatase) (steroid sulfatase [1])	levels of DHEA in the liver relative to the brain (steroid sulfatase [1]; [6])	formation of DHEA (metabolism by sulfatase) (steroid sulfatase [2])	dose at which % time spent in the novel arm / memory performance was significantly increased relative to vehicle-control (Swiss mice)	dose at which % time spent in the novel arm / memory performance was significantly increased relative to vehicle-control (Male Sprague-Dawley rats)	formation of PREG (metabolism by sulfatase) (steroid sulfatase [1])	levels of PREG in the liver relative to the brain (steroid sulfatase [1]; [6])	brain content of PREG compared with saline-injected control rats (steroid sulfatase [3])	memory performances when coadministered with AP5 compared to the group treated with the steroid alone (NMDA receptor [4])	recognition performances of steroid alone compared with vehicle-controls (NMDA receptor [4])	formation of PREG (metabolism by sulfatase) (steroid sulfatase [2])	memory performances when coadministered with AP5 compared to the group treated with the steroid alone (NMDA receptor [5])	recognition performances of steroid alone compared with vehicle-controls (NMDA receptor [5])	recognition performance of AP5-treated group versus vehicle-control (NMDA receptor [4]; AP5 alone 2 nmol ICV, P > 0.05)	recognition performance of AP5-treated group versus vehicle-control (NMDA receptor [5]; AP5 alone 10 nmol ICV, P > 0.05)
C[C@]12CC[C@H](OS(=O)(=O)O)CC1=CC[C@@H]1[C@@H]2CC[C@]2(C)C(=O)CC[C@@H]12 [DHEAS, dehydroepiandrosterone sulfate]	metabolized into DHEA	5 times	metabolized into DHEA												
CC(=O)C1CCC2C3CC=C4CC(OS(=O)(=O)O)CCC4(C)C3CCC12C (stereo not drawn) [PREGS, pregnenolone sulfate]				5.0 nmol	0.5 nmol	metabolized into PREG	4 times	signicantly increased	significantly reduced	significantly increased	metabolized into PREG	significantly reduced	significantly increased		
CC(=O)[C@@H]1CC[C@@H]2[C@H]3CC=C4C[C@H](OS(=O)(=O)O)CC[C@@]4(C)[C@@H]3CC[C@]21C [ent-PREGS]				0.5 nmol	0.05 nmol	undectectable		did not significantly differ	did not perform differently	significantly increased	undectectable	did not perform differently	significantly increased		
C[C@@]12CC[C@@H]3[C@H](CC=C4C[C@H](OS(=O)(=O)O)CC[C@]43C)[C@H]1CCC2=O [ent-DHEAS]	undectectable		undectectable		0,025 nmol										
NC(CCCP(=O)(O)O)C(=O)O (stereo not drawn) [AP5]														did not significantly differ	did not significantly differ
